Measurements: patent US20170280720A1, “ARGININE […] INHIBITORS AND USES THEREOF” (EPIZYME, INC., priority 2014, published 2017)

biological target: PRMT5 (Homo sapiens, UniProt O14744); experiment: PRMT5 IC50 (Table 2; no method described); type: biochemical; settings: read-out: PRMT5_ IC50
Sequence (O14744 whole entry, species assumed): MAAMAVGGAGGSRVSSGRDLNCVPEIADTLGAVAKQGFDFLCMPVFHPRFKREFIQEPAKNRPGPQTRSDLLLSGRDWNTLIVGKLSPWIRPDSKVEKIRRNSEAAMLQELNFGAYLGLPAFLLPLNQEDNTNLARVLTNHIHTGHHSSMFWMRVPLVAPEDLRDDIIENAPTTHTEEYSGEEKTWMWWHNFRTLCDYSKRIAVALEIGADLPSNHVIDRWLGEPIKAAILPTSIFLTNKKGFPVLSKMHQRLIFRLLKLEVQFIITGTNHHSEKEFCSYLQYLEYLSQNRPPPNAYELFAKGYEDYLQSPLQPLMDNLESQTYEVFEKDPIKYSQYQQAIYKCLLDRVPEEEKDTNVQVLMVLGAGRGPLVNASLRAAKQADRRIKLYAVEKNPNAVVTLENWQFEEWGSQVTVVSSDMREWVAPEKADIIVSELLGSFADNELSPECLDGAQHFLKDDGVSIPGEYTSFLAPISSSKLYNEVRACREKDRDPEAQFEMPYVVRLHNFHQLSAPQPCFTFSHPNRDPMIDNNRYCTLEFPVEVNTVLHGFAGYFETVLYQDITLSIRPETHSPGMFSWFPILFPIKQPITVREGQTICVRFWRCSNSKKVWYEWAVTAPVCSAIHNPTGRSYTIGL
Sequence (Q9BQA1 whole entry partner, species assumed): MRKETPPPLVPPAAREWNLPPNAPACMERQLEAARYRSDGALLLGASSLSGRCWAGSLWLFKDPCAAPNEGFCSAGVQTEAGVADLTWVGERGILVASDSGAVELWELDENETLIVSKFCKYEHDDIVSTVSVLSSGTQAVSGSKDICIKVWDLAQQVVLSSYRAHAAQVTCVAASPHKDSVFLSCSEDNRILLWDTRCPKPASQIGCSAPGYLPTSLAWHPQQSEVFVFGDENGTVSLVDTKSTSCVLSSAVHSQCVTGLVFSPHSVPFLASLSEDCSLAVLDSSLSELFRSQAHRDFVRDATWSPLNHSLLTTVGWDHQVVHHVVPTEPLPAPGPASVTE

Question: `Cc1c(C(=O)NCc2ccccc2)cc(-c2cccc(CN(C)CCN)c2)c2cn[nH]c12` [Compound 15] was tested. Which IC50 did it give?
Answer: Its IC50 is 10.8 µM.

Question: How did the IC50 turn out when `COc1ccc(Cn2cnc3ccc(-c4ccc(CN(C)CCN)cc4)cc32)cc1` [Compound 16] was run?
Answer: Its IC50 is 5.69 µM.

Question: With `CN(CCN)Cc1ccc(-c2ccc3ncn(-c4ccccc4)c3c2)cc1` [Compound 19] as the compound, how does the IC50 read?
Answer: The IC50 was 34.7 µM.

Question: `CC(C)n1ncc2c(C(=O)N3CCc4ccccc4C3)cc(-c3cccc(CN(C)CCN)c3)nc21` [Compound 23] was tested. Which IC50 did it give?
Answer: The IC50 was 11.6 µM.

Question: Which IC50 does the source give for `CNCCN(C)Cc1cccc(-c2cc(C(=O)N(C)Cc3ccccc3)c3cnn(C(C)C)c3n2)c1` [Compound 24] here?
Answer: The IC50 was 0.849 µM.

Question: For `CC(C)n1ncc2c(C(=O)N(C)Cc3ccccc3)cc(-c3cccc(CN(C)CCN)c3)nc21` [Compound 31], which IC50 is on record?
Answer: The IC50 was 0.858 µM.

Question: How did the IC50 turn out when `CNCCN(C)Cc1cccc(-c2ccc3c(c2)ncn3C(C)C)c1` [Compound 36] was run?
Answer: The IC50 was 50 µM.

Question: For `CNCCN(C)Cc1cccc(-c2cc(C(=O)N[C@@H](C)c3ccccc3)c3cnn(C(C)C)c3n2)c1` [Compound 44], which IC50 is on record?
Answer: The IC50 was 50 µM.

Question: How did the IC50 turn out when `CS(=O)(=O)N1CCC(Cn2cnc3ccc(-c4ccc(CNCCN)cc4)cc32)CC1` [Compound 129] was run?
Answer: Its IC50 is 0.122 µM.

Question: Which IC50 does the source give for `Cc1ccc(-n2cnc3cc(-c4ccc(CNCCN)cc4)ccc32)cc1` [Compound 131] here?
Answer: Its IC50 is 0.371 µM.

Question: `COc1ccc(Cn2cnc3ccc(-c4ccc(CNCCN)cc4)cc32)cc1` [Compound 132] was tested. Which IC50 did it give?
Answer: The IC50 was 0.0572 µM.

Question: With `COc1cccc(Cc2nc3ccc(-c4ccc(CNCCN)cc4)cc3n2C(C)C)c1` [Compound 135] as the compound, how does the IC50 read?
Answer: The IC50 was 0.169 µM.

Question: For `CC(C)n1ncc2c(C(=O)N[C@@H](C)c3ccccc3)cc(-c3cccc(CN(C)CCN)c3)nc21` [Compound 136], which IC50 is on record?
Answer: Its IC50 is 50 µM.

Question: Which IC50 does the source give for `Cc1cc2cc(-c3ccc(CNCCN)cc3)ccc2[nH]1` [Compound 141] here?
Answer: Its IC50 is 0.327 µM.

Question: Which IC50 does the source give for `Cc1cccc(CCn2cnc3ccc(-c4ccc(CNCCN)cc4)cc32)c1` [Compound 143] here?
Answer: The IC50 was 0.281 µM.

Question: How did the IC50 turn out when `N#Cc1cccc(Cn2cnc3ccc(-c4ccc(CNCCN)cc4)cc32)c1` [Compound 145] was run?
Answer: Its IC50 is 0.0799 µM.

Question: `CC(C)n1ncc2c(C(=O)NCc3ccncc3)cc(-c3cccc(CNCCN)c3)nc21` [Compound 150] was tested. Which IC50 did it give?
Answer: Its IC50 is 23.9 µM.

Question: Which IC50 does the source give for `NCCNCc1ccc(-c2cnc3c(c2)CCC(=O)N3)cc1` [Compound 156] here?
Answer: Its IC50 is 0.338 µM.

Question: Which IC50 does the source give for `NCCNCc1ccc(-c2ccc3ncn(C4CCNCC4)c3c2)cc1` [Compound 157] here?
Answer: The IC50 was 0.418 µM.

Question: Which IC50 does the source give for `CC(C)n1ncc2c(C(=O)N[C@@H](C)c3ccccc3)cc(-c3cccc(CNCCN)c3)nc21` [Compound 160] here?
Answer: Its IC50 is 35.9 µM.

Question: How did the IC50 turn out when `CC(C)n1ncc2c(C(=O)NCC3CCN(C)CC3)cc(-c3cccc(CN(C)CCN(C)C)c3)nc21` [Compound 162] was run?
Answer: Its IC50 is 50 µM.

Question: `CC(C)n1cnc2ccc(-c3ccc(CNCCN)cc3)cc21` [Compound 166] was tested. Which IC50 did it give?
Answer: Its IC50 is 0.404 µM.

Question: For `COc1cccc(CNC(=O)c2cncc(-c3ccc(CNCCN)cc3)c2)c1` [Compound 356], which IC50 is on record?
Answer: The IC50 was 0.377 µM.

system: asymmetric di-methyl PABP1 in RKO cells; experiment: In Cell Western (ICW) for asymmetric di-methyl PABP1 and DNA content in RKO cells; type: cell-based; settings: Homo sapiens, RKO, In Cell Western
Outline: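 RKO cells treated with compound for 48 h at 37 °C, then fixed, methanol-permeabilized and stained for asymmetric di-methyl PABP1 (800 nm) with DRAQ5 DNA stain (700 nm). Signal ratio normalized to DMSO and 20 μM reference-compound controls. IC50 from nine 3-fold dilutions in triplicate.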

Question: How did the IC50 turn out when `CNCCN(C)Cc1cccc(-c2cc(NC3CC3)c3cnn(C(C)C)c3n2)c1` [Compound 11] was run?
Answer: The IC50 was 3.44 µM.

Question: `CC(C)n1ncc2c(C(=O)NCc3ccccc3)cc(-c3cccc(CN(C)CCN)c3)cc21` [Compound 14] was tested. Which IC50 did it give?
Answer: Its IC50 is 20 µM.

Question: With `CNCCN(C)Cc1cccc(-c2nc(NCc3cc(C)nn3C)c3cnn(C4CC4)c3n2)c1` [Compound 17] as the compound, how does the IC50 read?
Answer: The IC50 was 20 µM.

Question: How did the IC50 turn out when `CN(CCN)Cc1cccc(-c2nc(NC3CCOCC3)c3cnn(C(C)(C)C)c3n2)c1` [Compound 18] was run?
Answer: The IC50 was 0.442 µM.

Question: With `CNCCN(C)Cc1cccc(-c2cc(Nc3ncc(C)s3)c3cnn(C(C)C)c3n2)c1` [Compound 20] as the compound, how does the IC50 read?
Answer: Its IC50 is 3.33 µM.

Question: For `CNCCN(C)Cc1cccc(-c2cc(C(=O)NCC3CCOCC3)c3cnn(C4CCC4)c3n2)c1` [Compound 21], which IC50 is on record?
Answer: Its IC50 is 7.37 µM.

Question: For `Cc1nn(C(C)C)c2nc(-c3cccc(CN(C)CCN)c3)cc(N3CCOCC3)c12` [Compound 22, N1-(3-(1-isopropyl-3-methyl-4-morpholino-1H-pyrazolo[3,4-b]pyridin-6-yl)benzyl)-N1-methylethane-1,2-diamine], which IC50 is on record?
Answer: The IC50 was 3.11 µM.

Question: Which IC50 does the source give for `CNCCN(C)Cc1cccc(-c2cc(C(=O)NCC3CCOCC3)c3cnn(C4CC4)c3n2)c1` [Compound 26] here?
Answer: The IC50 was 2.15 µM.

Question: How did the IC50 turn out when `CNCCN(C)Cc1cccc(-c2nc(NC3CCOCC3)c3cnn(C(C)(C)C)c3n2)c1` [Compound 27, N1-(3-(1-tert-butyl-4-(tetrahydro-2H-pyran-4-ylamino)-1H-pyrazolo[3,4-d]pyrimidin-6-yl)benzyl)-N1,N2-dimethylethane-1,2-diamine] was run?
Answer: The IC50 was 0.387 µM.

Question: How did the IC50 turn out when `CNCCN(C)Cc1cccc(-c2cc(C(=O)NC3CCOCC3)c3cnn(C4CCC4)c3n2)c1` [Compound 29] was run?
Answer: The IC50 was 5.21 µM.

Question: For `CNCCN(C)Cc1cccc(-c2ccc3cn(Cc4ccccc4)nc3n2)c1` [Compound 35], which IC50 is on record?
Answer: The IC50 was 3.05 µM.

Question: `CNCCN(C)Cc1cccc(-c2cc(C(=O)NCc3ccccc3F)c3cnn(C(C)C)c3n2)c1` [Compound 38] was tested. Which IC50 did it give?
Answer: Its IC50 is 4.12 µM.

Question: How did the IC50 turn out when `CNCCN(C)Cc1cccc(-c2cnc3c(c2)c(Br)nn3CC2CCOCC2)c1` [Compound 39] was run?
Answer: The IC50 was 20 µM.

Question: `CC(C)n1ncc2c(NC3CC3)cc(-c3cccc(CN(C)CCN)c3)nc21` [Compound 41] was tested. Which IC50 did it give?
Answer: The IC50 was 5.94 µM.

Question: Which IC50 does the source give for `CC(C)n1ncc2c(C(=O)N3CCCCC3)cc(-c3cccc(CN(C)CCN)c3)nc21` [Compound 43] here?
Answer: The IC50 was 20 µM.

Question: How did the IC50 turn out when `CNCCN(C)Cc1cccc(-c2cc(Oc3ccccc3)c3cnn(C(C)C)c3n2)c1` [Compound 45] was run?
Answer: Its IC50 is 20 µM.

Question: Which IC50 does the source give for `CNC(=O)Nc1cc(-c2cccc(CN(C)CCN)c2)nc2c1cnn2C(C)C` [Compound 126] here?
Answer: Its IC50 is 10.8 µM.

Question: `CCC(=O)c1cc(-c2cccc(CN(C)CCNC)c2)nc2c1cnn2C(C)C` [Compound 128] was tested. Which IC50 did it give?
Answer: The IC50 was 20 µM.

Question: For `CNCCN(C)Cc1cc(-c2cc(C(=O)NC3CCOCC3)c3cnn(C(C)C)c3n2)ccc1F` [Compound 130], which IC50 is on record?
Answer: The IC50 was 11.5 µM.

Question: How did the IC50 turn out when `CNCCN(C)Cc1cccc(-c2cc(NC(=O)NC3CCOCC3)c3cnn(C(C)C)c3n2)c1` [Compound 133] was run?
Answer: The IC50 was 11.5 µM.

Question: For `CNCCN(C)Cc1cccc(-c2cc(C(=O)NCc3cnn(C)c3C)c3cnn(C(C)C)c3n2)c1` [Compound 137], which IC50 is on record?
Answer: Its IC50 is 9.62 µM.

Question: Which IC50 does the source give for `CNCCN(C)Cc1cccc(-c2cc(NC(=O)NC)c3cnn(C(C)C)c3n2)c1` [Compound 138] here?
Answer: The IC50 was 7.74 µM.

Question: With `CNCCN(C)Cc1cccc(-c2cc(NS(=O)(=O)N(C)C)c3cnn(C(C)C)c3n2)c1` [Compound 139] as the compound, how does the IC50 read?
Answer: The IC50 was 4.86 µM.

Question: `CN(CCN)Cc1cccc(-c2cc(C(=O)NC3CCOCC3)c3cnn(C4CC4)c3n2)c1` [Compound 142] was tested. Which IC50 did it give?
Answer: Its IC50 is 2.77 µM.

Question: Which IC50 does the source give for `CN(CCN)Cc1cccc(-c2cc(C(=O)NC3CCOCC3)c3cnn(CC(F)(F)F)c3n2)c1` [Compound 144] here?
Answer: Its IC50 is 8.46 µM.

Question: How did the IC50 turn out when `CC(C)n1ncc2c(C(=O)NC3CCOCC3)cc(-c3cccc(CN(C)CCN)c3)nc21` [Compound 148] was run?
Answer: The IC50 was 0.972 µM.

Question: How did the IC50 turn out when `CNCCN(C)Cc1cccc(-c2cc(N)c3cnn(C(C)C)c3n2)c1` [Compound 151] was run?
Answer: Its IC50 is 20 µM.

Question: `CC(C)n1ncc2c(C(=O)N3CCCCC3)cc(-c3cccc(CNCCN)c3)nc21` [Compound 153] was tested. Which IC50 did it give?
Answer: Its IC50 is 20 µM.

Question: How did the IC50 turn out when `CN(CCN)Cc1cccc(-c2cc(C(=O)NC3CCOCC3)c3cnn(C)c3n2)c1` [Compound 158] was run?
Answer: Its IC50 is 13.5 µM.

Question: How did the IC50 turn out when `CC(C)n1ncc2c(C(=O)NCc3ccccc3F)cc(-c3cccc(CNCCN)c3)nc21` [Compound 159] was run?
Answer: Its IC50 is 20 µM.

Question: How did the IC50 turn out when `CCS(=O)(=O)Nc1cc(-c2cccc(CN(C)CCNC)c2)nc2c1cnn2C(C)C` [Compound 161] was run?
Answer: Its IC50 is 11.3 µM.

Question: How did the IC50 turn out when `CC(C)n1ncc2c(N3CCOCC3)cc(-c3cccc(CN(C)CCNC4CC4)c3)nc21` [Compound 163] was run?
Answer: The IC50 was 11.6 µM.

Question: `CNCCN(C)Cc1cccc(-c2cc(NS(=O)(=O)C(F)(F)F)c3cnn(C(C)C)c3n2)c1` [Compound 164] was tested. Which IC50 did it give?
Answer: The IC50 was 11.9 µM.

Question: `CC(C)n1ncc2c(C(=O)NCC3CCOCC3)cc(-c3cccc(CN(C)CCNC4CC4)c3)nc21` [Compound 167] was tested. Which IC50 did it give?
Answer: Its IC50 is 5.14 µM.

Question: With `CNCCN(C)Cc1cccc(-c2cc(NS(C)(=O)=O)c3cnn(C(C)C)c3n2)c1` [Compound 169] as the compound, how does the IC50 read?
Answer: Its IC50 is 13.3 µM.

Question: How did the IC50 turn out when `CNCCN(C)Cc1cccc(-c2cnc3c(c2)OCC(=O)N3)c1` [Compound 355] was run?
Answer: Its IC50 is 12.8 µM.
